Entries after “also recorded” stand apart in the source; their conditions may differ. Marks after values point to notes of the source that are not given here.
System: migraine attack
Test: Intravenous dose-finding study in acute migraine: headache response (moderate or severe becoming mild or none) and secondary efficacy
Type: in vivo, human
Experimental: Preclinical and early clinical experiments predict acute anti-migraine efficacy of Compound I that is mediated through a non-vascular, primarily neural, mechanism. In a multi-centre, placebo-controlled, double-blind, group-sequential, adaptive treatment-assignment, proof-of-concept and dose-finding study, 130 patients were treated in-hospital during a migraine attack. Patients were allocated to an intravenous dose level of Compound I or placebo in small cohorts. The starting dose was 2.5 mg. Subsequent doses were adjusted, up or down, according to the safety and efficacy seen in the preceding cohort. The primary outcome measure was headache response defined as improvement from moderate or severe headache at baseline to mild or no headache at 2 hours post-dose. The study was designed to explore the overall dose response relationship but was not powered to differentiate individual doses from placebo, nor to detect effect differences for other migraine symptoms.
The study used a prospective, randomized, double-blind, placebo-controlled design with group-sequential adaptive-treatment assignment (Olesen J et al., N Engl J Med 2004: 350: 1104-10; Hall D B et al., Contemporary Clinical Trials 2005; 26: 349-63). […] The first cohort was allocated to the 2.5 mg dose level. The dose used in subsequent cohorts depended on the headache response (moderate or severe headache reduced to mild or none at 2 hours) of the previous cohort: if 2 or less of the 4 active-treated patients had responded, the dose was increased, and if 3 or more of the 4 active-treated patients had responded, the dose was reduced. The dose adjustment rules were chosen to identify doses of Compound I with efficacy similar to or better than an oral triptan. […] The occurrence of a drug-related serious adverse event would lead to automatic suspension of the randomization pending a safety review.
Patients were initially screened for eligibility at an out-patient visit outside a migraine attack, and were invited to return to the clinic for treatment with study medication of a new, moderate or severe migraine attack within 4 hours of onset. On return to the clinic, eligibility for the study was reconfirmed and the patient was randomized. Patients were eligible for the study if they were between 18 and 65 years of age and had at least a 1 year history of migraine with or without aura fulfilling the IHS diagnostic criteria 1.1 and 1.2.1 (2004), with a migraine onset before the age of 50 years (Headache Classification Subcommittee of the International Headache Society. The International Classification of Headache Disorders (second edition). Cephalalgia 2004: 24; Supp11:1-160). Patients had to be experiencing between 1 and 8 migraine attacks a month and not be using migraine prophylactic medication. Patients were in good general health and had no evidence of vascular disease or hypertension. Patients with previous intolerance of triptans were excluded. Pregnant or breast-feeding women were excluded, as were women of childbearing potential who were not using a highly reliable form of contraception.
On return of the patient to the clinic, instructions for dilution of study drug were obtained from an online randomization system by a pharmacist or other study personnel, independent of the investigator, and the study drug for infusion was prepared. Both investigator and pharmacist were blinded with regard to active or placebo and only the pharmacist knew the dilution. All patients received a 60 ml intravenous infusion over 20 minutes. Efficacy and safety data before and after administration of study drug were entered immediately into an electronic data capture system, so allowing the headache response to be used to drive dose-allocation for subsequent cohorts.
Data were entered concurrently into an online electronic data capture system. Patients were discharged from the clinic after 4 h and continued to record migraine symptoms and adverse events until 24 h using a diary card. […]

CN1CCC(C(=O)c2cccc(NC(=O)c3c(F)cc(F)cc3F)n2)CC1 [Compound I, 2,4,6-trifluoro-N-[6-(1-methyl-piperidin-4-ylcarbonyl)-pyridin-2-yl]-benzamide]
Impression: very much/much better 2h (2.5 mg iv): 75.0% of Patients | Nausea 2 h (2.5 mg iv): 25.0% of Patients | No/mild disability 2 h (2.5 mg iv): 75.0% of Patients | Pain freedom 2 h (2.5 mg iv): 0.0% of Patients | Phonophobia 2 h (2.5 mg iv): 25.0% of Patients | Photophobia 2 h (2.5 mg iv): 25.0% of Patients | Sustained pain free (2.5 mg iv): 0.0% of Patients | Sustained pain response (2.5 mg iv): 50.0% of Patients | Use of rescue medication, 2-24 h (2.5 mg iv): 25.0% of Patients | Proportion of Patients with headache response (2.5 mg iv, 10 min post dose): 0.0% of Patients | Proportion of Patients with headache response (2.5 mg iv, 20 min post dose): 0.0% of Patients | Proportion of Patients with headache response (2.5 mg iv, 40 min post dose): 0.0% of Patients | Proportion of Patients with headache response (2.5 mg iv, 60 min post dose): 50.0% of Patients | Proportion of Patients with headache response (2.5 mg iv, 90 min post dose): 50.0% of Patients | Proportion of Patients with headache response (2.5 mg iv, 120 min post dose): 50.0% of Patients | Proportion of Patients with headache response (2.5 mg iv, 180 min post dose): 50.0% of Patients | Proportion of Patients with headache response (2.5 mg iv, 240 min post dose): 75.0% of Patients | Impression: very much/much better 2h (5 mg iv): 8.3% of Patients | Nausea 2 h (5 mg iv): 41.7% of Patients | No/mild disability 2 h (5 mg iv): 16.6% of Patients | Pain freedom 2 h (5 mg iv): 0.0% of Patients | Phonophobia 2 h (5 mg iv): 41.7% of Patients | Photophobia 2 h (5 mg iv): 75.0% of Patients | Sustained pain free (5 mg iv): 0.0% of Patients | Sustained pain response (5 mg iv): 8.3% of Patients | Use of rescue medication, 2-24 h (5 mg iv): 91.7% of Patients | Proportion of Patients with headache response (5 mg iv, 10 min post dose): 8.3% of Patients | Proportion of Patients with headache response (5 mg iv, 20 min post dose): 16.7% of Patients | Proportion of Patients with headache response (5 mg iv, 40 min post dose): 25.0% of Patients | Proportion of Patients with headache response (5 mg iv, 60 min post dose): 25.0% of Patients | Proportion of Patients with headache response (5 mg iv, 90 min post dose): 25.0% of Patients | Proportion of Patients with headache response (5 mg iv, 120 min post dose): 16.7% of Patients | Proportion of Patients with headache response (5 mg iv, 180 min post dose): 25.0% of Patients | Proportion of Patients with headache response (5 mg iv, 240 min post dose): 33.3% of Patients | Impression: very much/much better 2h (10 mg iv): 37.5% of Patients | Nausea 2 h (10 mg iv): 12.5% of Patients | No/mild disability 2 h (10 mg iv): 54.2% of Patients | Pain freedom 2 h (10 mg iv): 20.8% of Patients | Phonophobia 2 h (10 mg iv): 25.0% of Patients | Photophobia 2 h (10 mg iv): 45.8% of Patients | Sustained pain free (10 mg iv): 12.5% of Patients | Sustained pain response (10 mg iv): 33.3% of Patients | Use of rescue medication, 2-24 h (10 mg iv): 58.3% of Patients | Proportion of Patients with headache response (10 mg iv, 10 min post dose): 8.3% of Patients | Proportion of Patients with headache response (10 mg iv, 20 min post dose): 25.0% of Patients | Proportion of Patients with headache response (10 mg iv, 40 min post dose): 37.5% of Patients | Proportion of Patients with headache response (10 mg iv, 60 min post dose): 50.0% of Patients | Proportion of Patients with headache response (10 mg iv, 90 min post dose): 45.8% of Patients | Proportion of Patients with headache response (10 mg iv, 120 min post dose): 54.2% of Patients | Proportion of Patients with headache response (10 mg iv, 180 min post dose): 54.2% of Patients | Proportion of Patients with headache response (10 mg iv, 240 min post dose): 54.2% of Patients | onset of headache relief (20 mg and 30 mg iv): speed onset of headache relief; also recorded: rapid onset of headache relief | Impression: very much/much better 2h (20 mg iv): 42.9% of Patients | Nausea 2 h (20 mg iv): 21.4% of Patients | No/mild disability 2 h (20 mg iv): 57.1% of Patients | Pain freedom 2 h (20 mg iv): 28.6% of Patients | Phonophobia 2 h (20 mg iv): 25.0% of Patients | Photophobia 2 h (20 mg iv): 42.9% of Patients | Sustained pain free (20 mg iv): 17.9% of Patients | Sustained pain response (20 mg iv): 35.7% of Patients | Use of rescue medication, 2-24 h (20 mg iv): 53.6% of Patients | Proportion of Patients with headache response (20 mg iv, 10 min post dose): 14.3% of Patients | Proportion of Patients with headache response (20 mg iv, 20 min post dose): 39.3% of Patients | Proportion of Patients with headache response (20 mg iv, 40 min post dose): 50.0% of Patients | Proportion of Patients with headache response (20 mg iv, 60 min post dose): 53.6% of Patients | Proportion of Patients with headache response (20 mg iv, 90 min post dose): 53.6% of Patients | Proportion of Patients with headache response (20 mg iv, 120 min post dose): 64.3% of Patients | Proportion of Patients with headache response (20 mg iv, 180 min post dose): 60.7* Percent of Patients | Proportion of Patients with headache response (20 mg iv, 240 min post dose): 57.1* Percent of Patients | Impression: very much/much better 2h (30 mg iv): 68.8% of Patients | Nausea 2 h (30 mg iv): 6.3% of Patients | No/mild disability 2 h (30 mg iv): 75.1% of Patients | Pain freedom 2 h (30 mg iv): 37.5% of Patients | Phonophobia 2 h (30 mg iv): 25.0% of Patients | Photophobia 2 h (30 mg iv): 25.0% of Patients | Sustained pain free (30 mg iv): 18.8% of Patients | Sustained pain response (30 mg iv): 56.3% of Patients | Use of rescue medication, 2-24 h (30 mg iv): 37.5% of Patients | associated symptoms (photophobia, phonophobia, nausea) (30 mg iv): reduced associated symptoms of photophobia, phonophobia, and nausea | headache recurrence within 24 hours (30 mg iv): reduced headache recurrence | moderate or severe disability reported (30 mg iv): reduced the percent of moderate or severe disability reported | patient global impression 2 hours post dose (30 mg iv): increased the number of patients who felt much or very much better; also recorded: increase in the number of patients who felt much better or very much better | use of rescue medication (30 mg iv): reduced the use of rescue medication | pain free at 2 hours versus placebo (30 mg iv over 20 minutes): completely abolished headache in a greater number of patients than placebo; also recorded: completely abolishes headache (‘pain free’) in a greater number of patients than placebo | Proportion of Patients with headache response (30 mg iv, 10 min post dose): 12.5% of Patients | Proportion of Patients with headache response (30 mg iv, 20 min post dose): 50.0% of Patients | Proportion of Patients with headache response (30 mg iv, 40 min post dose): 75.0* Percent of Patients | Proportion of Patients with headache response (30 mg iv, 60 min post dose): 75.0* Percent of Patients | Proportion of Patients with headache response (30 mg iv, 90 min post dose): 68.8% of Patients | Proportion of Patients with headache response (30 mg iv, 120 min post dose): 68.8% of Patients | Proportion of Patients with headache response (30 mg iv, 180 min post dose): 68.8* Percent of Patients | Proportion of Patients with headache response (30 mg iv, 240 min post dose): 68.8* Percent of Patients | Impression: very much/much better 2h (45 mg iv): 50.0% of Patients | Nausea 2 h (45 mg iv): 25.0% of Patients | No/mild disability 2 h (45 mg iv): 25.0% of Patients | Pain freedom 2 h (45 mg iv): 25.0% of Patients | Phonophobia 2 h (45 mg iv): 25.0% of Patients | Photophobia 2 h (45 mg iv): 25.0% of Patients | Sustained pain free (45 mg iv): 25.0% of Patients | Sustained pain response (45 mg iv): 25.0% of Patients | Use of rescue medication, 2-24 h (45 mg iv): 25.0% of Patients | Proportion of Patients with headache response (45 mg iv, 10 min post dose): 75.0* Percent of Patients | Proportion of Patients with headache response (45 mg iv, 20 min post dose): 75.0% of Patients | Proportion of Patients with headache response (45 mg iv, 40 min post dose): 75.0% of Patients | Proportion of Patients with headache response (45 mg iv, 60 min post dose): 50.0% of Patients | Proportion of Patients with headache response (45 mg iv, 90 min post dose): 75.0% of Patients | Proportion of Patients with headache response (45 mg iv, 120 min post dose): 75.0% of Patients | Proportion of Patients with headache response (45 mg iv, 180 min post dose): 75.0% of Patients | Proportion of Patients with headache response (45 mg iv, 240 min post dose): 25.0% of Patients | time at which response starts to separate from placebo (doses of 20 mg and above, after start of infusion): 20 min | efficacy in acute treatment of migraine (intravenous doses of 20 mg and higher): proved effective | effective dose identified by predefined stopping rules (iv over 20 min, primary endpoint): 20 mg
